# Reference: BindingDB's records for patent US20250325529 (Celloram, 2025)
# Assays:
# Assay in all cases: Binding assays for FABP3, FABP4, FABP5 and FABP7
# [1] = molecular target: Fatty acid-binding protein, brain (FABP7) (Homo sapiens, UniProt O15540)
# Method: (§1) Binding assays for FABP3, FABP4, FABP5 and FABP7 were carried out by fluorescence titrations. His-tagged FABPs were bacterially expressed in E. coli, purified using Ni Sepharose beads, and the equilibrium dissociation constants (Kd) that characterize their interactions with different inhibitor compounds were measured by fluorescence competition assays. The method entails two steps as described in e.g., Lin, Q. et al., “Ligand selectivity of the peroxisome proliferator-activated receptor alpha,” Biochemistry 38, 185-190, doi:10.1021/bi9816094 [pii](1999). In the first step, Kd for the association of the protein with the fluorescent fatty acid probe ANS was measured. Protein (2 μM) was titrated with ANS from a concentrated solution in DMSO. Ligand binding was monitored by following the increase in the fluorescence of the ligand upon binding to the protein, and Kd for the association of ANS with the each FABP was computed from titration curves as described in e.g., Norris, A. W. & Li, E., “Fluorometric titration of the CRABPs,” Methods Mol Biol 89, 123-139 (1998)). In the second step, Kds for binding of non-fluorescent ligands were measured by monitoring their ability to displace ANS in the binding pocket of the protein.
# [2] = molecular target: Fatty acid-binding protein 5 (Homo sapiens, UniProt Q01469)
# Chain of Fatty acid-binding protein 5 (Q01469 whole entry): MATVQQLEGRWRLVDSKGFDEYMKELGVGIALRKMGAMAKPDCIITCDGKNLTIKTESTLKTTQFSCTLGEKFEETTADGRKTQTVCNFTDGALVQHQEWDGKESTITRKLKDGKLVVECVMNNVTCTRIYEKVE
# Method: as §1
# [3] = molecular target: Fatty acid-binding protein, heart (Homo sapiens, UniProt P05413)
# Chain of Fatty acid-binding protein, heart (P05413 whole entry): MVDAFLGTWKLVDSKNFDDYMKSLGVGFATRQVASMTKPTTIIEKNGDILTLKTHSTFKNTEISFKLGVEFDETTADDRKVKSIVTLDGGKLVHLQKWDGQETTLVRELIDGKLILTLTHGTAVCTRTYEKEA
# Method: as §1
# [4] = molecular target: Fatty acid-binding protein, adipocyte (Homo sapiens, UniProt P15090)
# Chain of Fatty acid-binding protein, adipocyte (P15090 whole entry): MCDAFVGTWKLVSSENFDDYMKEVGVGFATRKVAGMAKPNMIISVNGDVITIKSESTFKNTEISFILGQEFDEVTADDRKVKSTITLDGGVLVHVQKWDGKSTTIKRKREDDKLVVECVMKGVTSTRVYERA
# Method: as §1
# Chain of Fatty acid-binding protein, brain (FABP7) (O15540 whole entry): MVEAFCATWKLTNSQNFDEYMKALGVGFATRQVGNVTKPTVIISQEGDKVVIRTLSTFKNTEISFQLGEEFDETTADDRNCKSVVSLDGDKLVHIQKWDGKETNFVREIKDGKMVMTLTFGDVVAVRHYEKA
smiles,measurement,setting,value
"CC(C)Oc1nc(NC(=O)CC(C)(C)CC(=O)O)c(Cl)cc1Cl [US20250325529, ID PD154]",Kd,[1],0.043 µM
same,Kd,[2],0.011 µM
same,Kd,[3],0.0608 µM
same,Kd,[4],0.014 µM
